The source of these data is patent US20250255848A1, “SUBSTITUTED 6,7-DIHYDRO-5H-BENZO[7]ANNULENE DERIVATIVES, PROCESSES FOR THEIR PREPARATION AND THERAPEUTIC USES THEREOF” (SANOFI, priority 2022, published 2025).

Each structure is given as a SMILES string.

The test addresses ERα (Homo sapiens (Human), UniProt P03372). Put plainly: Estrogen receptor degradation activity: breast cancer cell ERα in cell western assay. The format is cell-based. To be noted: MCF7 cells; for % Degradation At 0.3 μM: 4 hours, normalised to fulvestrant 0.1 μM and DMSO; for IC50: 4 hours post compound addition, concentration which degrades 50% of the estrogen receptor. How it is done:
Said test involves measuring the in vitro degradation activity of the compounds of the Table 1a.
The measurements of the degradation activities were made using a breast cancer cell ERα in cell western assay as described hereunder.
MCF7 cells (ATCC) were seeded in 384 wells microplate (collagen coated) at a concentration of 10000 cells/30 μL per well in red phenol free MEM alpha medium (invitrogen) containing 5% charcoal dextran striped FBS. The following day, 9 points serial 1:5 dilution of each compound was added to the cells in 2.5 μL at final concentrations ranging from 0.3-0.0000018 μM (in table 2), or 0.1 μM for fulvestrant (using as positive control). At 4 hours post compound addition the cells were fixed by adding 25 μL of formalin (final concentration 5% formalin containing 0.1% triton) for 10 minutes at room temperature and then washed twice with PBS. Then, 50 μL of LI-COR blocking buffer containing 0.1% Triton was added to plate for 30 minutes at room temperature. LI-COR blocking buffer was removed and cells were incubated overnight at cold room with 50 μL anti-ER rabbit monoclonal antibody (Thermo scientific MA1-39540) diluted at 1:1000 in LI-COR blocking buffer containing 0.1% tween-20. Wells which were treated with blocking buffer but no antibody were used as background control. Wells were washed twice with PBS (0.1% tween-20) and incubated at 37° C. for 60 minutes in LI-COR (0.1% tween-20) containing goat anti-rabbit antibody Alexa 488 (1:1000) and Syto-64 a DNA dye (2 μM final concentration). Cells were then washed 3 times in PBS and scanned in ACUMEN explorer (TTP-Labtech). Integrated intensities in the green fluorescence and red fluorescence were measured to determine the levels of ERα and DNA respectively.
The degradation activity with respect to estrogen receptors in this test is given by the concentration which degrades 50% of the estrogen receptor (or IC50) in nM.
The % of ERα levels decrease were determined as follows: % inhibition=100*(1−(sample−fulvestrant:DMSO−fulvestrant)).

Sequence of ERα (P03372 whole entry): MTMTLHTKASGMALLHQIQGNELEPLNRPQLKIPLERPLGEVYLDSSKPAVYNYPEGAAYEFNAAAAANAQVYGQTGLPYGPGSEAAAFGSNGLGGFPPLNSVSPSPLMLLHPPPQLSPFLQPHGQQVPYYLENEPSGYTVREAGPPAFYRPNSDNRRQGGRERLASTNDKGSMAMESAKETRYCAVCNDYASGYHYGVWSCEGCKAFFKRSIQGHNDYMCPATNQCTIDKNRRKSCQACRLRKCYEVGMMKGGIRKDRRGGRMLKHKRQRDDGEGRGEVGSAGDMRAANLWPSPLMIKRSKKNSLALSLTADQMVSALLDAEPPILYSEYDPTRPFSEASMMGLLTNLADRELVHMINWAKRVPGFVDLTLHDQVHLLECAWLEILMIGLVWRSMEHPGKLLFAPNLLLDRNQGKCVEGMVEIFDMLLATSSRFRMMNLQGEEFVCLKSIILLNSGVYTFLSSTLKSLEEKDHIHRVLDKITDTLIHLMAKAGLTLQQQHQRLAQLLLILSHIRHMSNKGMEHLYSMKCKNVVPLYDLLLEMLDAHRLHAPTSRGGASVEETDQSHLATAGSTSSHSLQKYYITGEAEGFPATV

As usually defined, the IC50 is the concentration at which inhibition is half-maximal. Low readings indicate greater potency in that assay, high ones weaker potency in that assay. On to `O=C(O)c1ccc2c(c1)CCCC(c1cccc(Cl)c1OC(F)(F)F)=C2c1ccc(C=C2CN(CCCF)C2)cc1` [Compound 34, 8-(3-chloro-2-(trifluoromethoxy)phenyl)-9-(4-((1-(3-fluoropropyl)azetidin-3-ylidene)methyl)phenyl)-6,7-dihydro-5H-benzo[7]annulene-3-carboxylic acid], for which the “% Degradation At 0.3 μM” value worked out at 94% and 0.7 nM corresponded to half-maximal inhibition (IC50).
Taken in the same sequence, the figures for `COc1ccc(C2=C(c3ccc(C=C4CN(CCCF)C4)cc3)c3ccc(C(=O)O)cc3CCC2)c(C(F)F)c1` [Compound 37, 8-(2-(difluoromethyl)-4-methoxyphenyl)-9-(4-((1-(3-fluoropropyl)azetidin-3-ylidene)methyl)phenyl)-6,7-dihydro-5H-benzo[7]annulene-3-carboxylic acid] were 91% and 0.6 nM.
Taken in the same sequence, the figures for `O=C(O)c1ccc2c(c1)CCCC(c1cccc(F)c1CF)=C2c1ccc(C=C2CN(CCCF)C2)cc1` [Compound 38, 8-(3-fluoro-2-(fluoromethyl)phenyl)-9-(4-((1-(3-fluoropropyl)azetidin-3-ylidene)methyl)phenyl)-6,7-dihydro-5H-benzo[7]annulene-3-carboxylic acid] were 90% and 0.4 nM.
On the same counts, the results for `CCc1c(F)cccc1C1=C(c2ccc(C=C3CN(CCCF)C3)cc2)c2ccc(C(=O)O)cc2CCC1` [Compound 39, 8-(2-ethyl-3-fluorophenyl)-9-(4-((1-(3-fluoropropyl)azetidin-3-ylidene)methyl)phenyl)-6,7-dihydro-5H-benzo[7]annulene-3-carboxylic acid] are 92% and 0.3 nM.
For `COc1c(F)cccc1C1=C(c2ccc(C=C3CN(CCCF)C3)cc2)c2ccc(C(=O)O)cc2CCC1` [Compound 40, 8-(3-fluoro-2-methoxyphenyl)-9-(4-((1-(3-fluoropropyl)azetidin-3-ylidene)methyl)phenyl)-6,7-dihydro-5H-benzo[7]annulene-3-carboxylic acid], the “% Degradation At 0.3 μM” value worked out at 91% and half-maximal inhibition (IC50) was put at 0.5 nM.
For `COc1cccc(C2=C(c3ccc(C=C4CN(CCCF)C4)cc3)c3ccc(C(=O)O)cc3CCC2)c1C` [Compound 41, 9-(4-((1-(3-fluoropropyl)azetidin-3-ylidene)methyl)phenyl)-8-(3-methoxy-2-methylphenyl)-6,7-dihydro-5H-benzo[7]annulene-3-carboxylic acid], the “% Degradation At 0.3 μM” value is 91% and the IC50 turned out to be 0.7 nM.
On the same counts, the results for `Cc1c(Cl)cccc1C1=C(c2ccc(C=C3CN(CCC(F)F)C3)cc2)c2ccc(O)cc2CCC1` [Compound 42, 8-(3-chloro-2-methylphenyl)-9-(4-((1-(3,3-difluoropropyl)azetidin-3-ylidene)methyl)phenyl)-6,7-dihydro-5H-benzo[7]annulen-3-ol] are 53% and 6.4 nM.
Taken in the same sequence, the figures for `Cc1ccc(C2=C(c3ccc(C=C4CN(CCCF)C4)cc3)c3ccc(C(=O)O)cc3CCC2)c(C(F)F)c1` [Compound 43, 8-(2-(difluoromethyl)-4-methylphenyl)-9-(4-((1-(3-fluoropropyl)azetidin-3-ylidene)methyl)phenyl)-6,7-dihydro-5H-benzo[7]annulene-3-carboxylic acid] were 91% and 0.5 nM.
On the same counts, the results for `Cc1cc(C(F)F)ccc1C1=C(c2ccc(C=C3CN(CCCF)C3)cc2)c2ccc(C(=O)O)cc2CCC1` [Compound 44, 8-(4-(difluoromethyl)-2-methylphenyl)-9-(4-((1-(3-fluoropropyl)azetidin-3-ylidene)methyl)phenyl)-6,7-dihydro-5H-benzo[7]annulene-3-carboxylic acid] are 93% and 0.5 nM.
As for `COc1ccc(C(F)F)c(C2=C(c3ccc(C=C4CN(CCCF)C4)cc3)c3ccc(C(=O)O)cc3CCC2)c1` [Compound 45, 8-(2-(difluoromethyl)-5-methoxyphenyl)-9-(4-((1-(3-fluoropropyl)azetidin-3-ylidene)methyl)phenyl)-6,7-dihydro-5H-benzo[7]annulene-3-carboxylic acid], the “% Degradation At 0.3 μM” value is on record as 93% and the IC50 stood at 0.6 nM.
On the same counts, the results for `CCc1c(Cl)cccc1C1=C(c2ccc(C=C3CN(CCCF)C3)cc2)c2ccc(C(=O)O)cc2CCC1` [Compound 46, 8-(3-chloro-2-ethylphenyl)-9-(4-((1-(3-fluoropropyl)azetidin-3-ylidene)methyl)phenyl)-6,7-dihydro-5H-benzo[7]annulene-3-carboxylic acid] are 91% and 0.5 nM.
Consider `COc1ccc(C(F)(F)F)c(C2=C(c3ccc(C=C4CN(CCCF)C4)cc3)c3ccc(C(=O)O)cc3CCC2)c1` [Compound 47, 9-(4-((1-(3-fluoropropyl)azetidin-3-ylidene)methyl)phenyl)-8-(5-methoxy-2-(trifluoromethyl)phenyl)-6,7-dihydro-5H-benzo[7]annulene-3-carboxylic acid], for which the “% Degradation At 0.3 μM” value was found to be 93% and it took 0.5 nM to reach half-maximal inhibition (IC50).
On the same counts, the results for `O=C(O)c1ccc2c(c1)CCCC(c1ccc(C(F)(F)F)cc1C1CC1)=C2c1ccc(C=C2CN(CCCF)C2)cc1` [Compound 48, 8-(2-cyclopropyl-4-(trifluoromethyl)phenyl)-9-(4-((1-(3-fluoropropyl)azetidin-3-ylidene)methyl)phenyl)-6,7-dihydro-5H-benzo[7]annulene-3-carboxylic acid] are 94% and 0.9 nM.
On the same counts, the results for `COc1c(Cl)cccc1C1=C(c2ccc(C=C3CN(CCCF)C3)cc2)c2ccc(C(=O)O)cc2CCC1` [Compound 49, 8-(3-chloro-2-methoxyphenyl)-9-(4-((1-(3-fluoropropyl)azetidin-3-ylidene)methyl)phenyl)-6,7-dihydro-5H-benzo[7]annulene-3-carboxylic acid] are 93% and 0.5 nM.
On the same counts, the results for `COc1cc(C2=C(c3ccc(C=C4CN(CCCF)C4)cc3)c3ccc(C(=O)O)cc3CCC2)ccc1C(F)(F)F` [Compound 50, 9-(4-((1-(3-fluoropropyl)azetidin-3-ylidene)methyl)phenyl)-8-(3-methoxy-4-(trifluoromethyl)phenyl)-6,7-dihydro-5H-benzo[7]annulene-3-carboxylic acid] are 92% and 8.5 nM.
As to `O=C(O)c1ccc2c(c1)CCCC(c1ccc(C(F)F)cc1C(F)(F)F)=C2c1ccc(C=C2CN(CCCF)C2)cc1` [Compound 51, 8-(4-(difluoromethyl)-2-(trifluoromethyl)phenyl)-9-(4-((1-(3-fluoropropyl)azetidin-3-ylidene)methyl)phenyl)-6,7-dihydro-5H-benzo[7]annulene-3-carboxylic acid], the “% Degradation At 0.3 μM” value was 92% and the IC50 was found to be 0.5 nM.
Taken in the same sequence, the figures for `COc1cccc(C2=C(c3ccc(C=C4CN(CCCF)C4)cc3)c3ccc(C(=O)O)cc3CCC2)c1C(F)(F)F` [Compound 52, 9-(4-((1-(3-fluoropropyl)azetidin-3-ylidene)methyl)phenyl)-8-(3-methoxy-2-(trifluoromethyl)phenyl)-6,7-dihydro-5H-benzo[7]annulene-3-carboxylic acid] were 94% and 0.4 nM.
On the same counts, the results for `Cc1cc(C2=C(c3ccc(C=C4CN(CCCF)C4)cc3)c3ccc(C(=O)O)cc3CCC2)ccc1C(F)(F)F` [Compound 53, 9-(4-((1-(3-fluoropropyl)azetidin-3-ylidene)methyl)phenyl)-8-(3-methyl-4-(trifluoromethyl)phenyl)-6,7-dihydro-5H-benzo[7]annulene-3-carboxylic acid] are 91% and 1.2 nM.
In the case of `O=C(O)c1ccc2c(c1)CCCC(c1ccc(C(F)F)cc1OC(F)(F)F)=C2c1ccc(C=C2CN(CCCF)C2)cc1` [Compound 54, 8-(4-(difluoromethyl)-2-(trifluoromethoxy)phenyl)-9-(4-((1-(3-fluoropropyl)azetidin-3-ylidene)methyl)phenyl)-6,7-dihydro-5H-benzo[7]annulene-3-carboxylic acid], the “% Degradation At 0.3 μM” value is 95% and the midpoint of inhibition, the IC50, lay at 0.5 nM.
On the same counts, the results for `O=C(O)c1ccc2c(c1)CCCC(c1ccc(C(F)F)cc1)=C2c1ccc(C=C2CN(CCCF)C2)cc1` [Compound 55, 8-(4-(difluoromethyl)phenyl)-9-(4-((1-(3-fluoropropyl)azetidin-3-ylidene)methyl)phenyl)-6,7-dihydro-5H-benzo[7]annulene-3-carboxylic acid] are 94% and 0.6 nM.
